Experimental data taken from paper PMC10107917 (ACS Medicinal Chemistry Letters, 2023).
Like-named read-outs stand apart in the source and are kept apart here. Bridge positions count the residues as written; N and C are the ends. Peptide text beside a SMILES is read from it.

Molecular target: T1, human recombinant furin (Homo sapiens, UniProt P09958)
T1 construct: Soluble human recombinant furin was kindly gifted; gift of Dr Anna Kwiatkowska (group of Prof. Robert Day, Université de Sherbrooke)
Format: biochemical
Details: for Ki / IC50: ± SEM; for Ki: Cheng-Prusoff from IC50, competitive mode assumed, Km 1.90 µM; for IC50: triplicate, substrate 20 µM
Protocol: Initially, the activities of the furin inhibitors were screened at three concentrations, i.e., 2.4, 24.0, and 77.0 nM (Figure 4). For selected peptides 3, 5, and 6 and the reference FI, the inhibitory constants (Ki) were calculated (Table 2). Except for the bicyclic peptide 4, all of the inhibitors almost completely abolished the enzyme activity at the highest tested concentration. Peptide 4 was explicitly the weakest inhibitor in the series, also when compared with its monocyclic disulfide-bridged counterpart 1. When the inhibitory activities were analyzed at the lowest tested concentration (2.4 nM), three peptides (3, 5, and 6) reduced the furin activity to less than 50% of its initial noninhibited activity. All of them have an additional basic amino acid at their N-termini (in MD simulations this is depicted as a residue with number “0”). […] Such close inhibitory potency was not observed in the case of an analogous pair, i.e., 2 and 5. […] The two disulfide-bridged peptides, FI and 1, differ only at the P4 position, having Lys and Arg, respectively. […]
The IC50 values (inhibitor concentrations giving 50% inhibition of enzyme activity) were calculated from plots of enzyme activity (% of control sample) versus the inhibitor’s concentration using a four-parameter fit model (GraFit 5.0.12 Erithacus Software Ltd.). The IC50 values were determined from triplicate measurements with at least seven different inhibitor concentrations. The K i values […] were calculated using the Cheng-Prusoff equation, assuming the competitive mode of inhibition, according to the following relationship: IC50 = K i(1+S/Km). All measurements were performed using a Fluostar Omega microplate reader (BMG Labtech, Germany) and 96-well black plates (BRAND, Germany). Recombinant human matriptase-1/ST14 catalytic domain was purchased from R&D Systems, USA. Recombinant human matriptase-2 was obtained from Enzo Life Sciences, Switzerland.
Soluble human recombinant furin was kindly gifted by Dr Anna Kwiatkowska (group of Prof. Robert Day from Université de Sherbrooke).4
The following assay buffers were used: […] (matriptase-1 and matriptase-2), pH 7.5 100 mM HEPES with 1 mM CaCl 2 and 1.8 mg/mL BSA (furin). The substrates used in the assays were as follows: for matriptase-1 and matriptase-2 Boc-Gln-Ala-Arg-AMC (Pepta Nova, Germany) in final concentration of 5 µM, for furin […] (Pepta Nova, Germany) in final concentration of 20 µM. Enzymes concentrations were as follows: 1.25 ng/mL of matriptase-1, 1.51 U/mL for matriptase-2, and 1.1 nM for furin. In the case of matriptase-1 and matripase-2 concentrations were calculated according to information provided by the suppliers.
In short, the tested compounds were added to the appropriate protease in different concentrations and incubated in an assay buffer at 37 °C for 30 min. After this time, a solution of appropriate substrate was added. Reactions were monitored for at least 40 min at 37 °C. The final volume in each well was 200 µL for matriptases and 100 µL for furin. Measurements were carried out using excitation and emission wavelengths of 380 nm and 450 nm. The percentage inhibition of an enzyme was calculated relative to the control sample without an inhibitor. The K m value for furin substrate was determined by incubating the enzyme with its substrate in various concentrations as recommended.5 Plots of the substrate concentration versus the initial reaction velocity were analyzed according to Michaelis-Menten equation using GraFit 5.0.12 Erithacus Software Ltd. A double reciprocal (Lineweaver-Burk) plot was used to determine the Michaelis constant K m value. K m value determined for furin was 1.90 µM.
Total furin-like enzyme inhibition/activity in PANC-1 cell lysates
Cell line and cell culture. The pancreatic cancer cell line, PANC-1, was obtained from the American Type Culture Collection, ATCC (Manassas, USA). […]

T1 sequence (P09958 108-715 limits assumed): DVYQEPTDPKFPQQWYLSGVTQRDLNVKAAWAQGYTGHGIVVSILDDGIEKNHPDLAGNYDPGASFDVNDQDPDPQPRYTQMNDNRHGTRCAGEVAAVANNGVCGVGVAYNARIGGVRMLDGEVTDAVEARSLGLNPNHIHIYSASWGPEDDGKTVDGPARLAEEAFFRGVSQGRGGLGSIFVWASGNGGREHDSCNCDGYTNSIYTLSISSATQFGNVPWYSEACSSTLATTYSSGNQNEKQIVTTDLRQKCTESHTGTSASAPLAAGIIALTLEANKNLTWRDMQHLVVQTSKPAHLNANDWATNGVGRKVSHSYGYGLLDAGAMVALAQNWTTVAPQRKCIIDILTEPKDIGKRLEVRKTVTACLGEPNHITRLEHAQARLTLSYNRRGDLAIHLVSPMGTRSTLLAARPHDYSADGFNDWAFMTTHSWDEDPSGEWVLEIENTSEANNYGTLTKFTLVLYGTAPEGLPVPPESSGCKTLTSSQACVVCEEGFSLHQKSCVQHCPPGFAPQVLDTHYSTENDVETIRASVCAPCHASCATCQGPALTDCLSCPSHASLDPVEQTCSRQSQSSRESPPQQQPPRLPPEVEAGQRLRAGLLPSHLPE

furin activity versus control with no inhibitor added (inhibitor 2.4 nM)	furin activity versus control with no inhibitor added (inhibitor 24.0 nM)	furin activity versus control with no inhibitor added (inhibitor 77.0 nM (highest tested concentration))	Ki	IC50	SMILES
66.76%	9.86%	0.31%	0.38 ± 0.02 nM	4.42 ± 0.22 nM	CC[C@H](C)[C@@H]1NC(=O)[C@@H]2CCCN2C(=O)[C@@H]2CCCN2C(=O)[C@H]([C@@H](C)CC)NC(=O)[C@H](CO)NC(=O)[C@H](CCCCN)NC(=O)[C@H](CCCCN)NC(=O)[C@@H](NC(=O)[C@H](CCCNC(=N)N)NC(=O)[C@@H](N)CCCCN)CSSC[C@@H](C(=O)N[C@@H](Cc2ccccc2)C(N)=O)NC1=O [FI, Lys-Arg-Cys(&)-Lys-Lys-Ser-Ile-Pro-Pro-Ile-Cys(&)-Phe-NH2, reference compound] (H-KRCKKSIPPICF-NH2; disulfide 3-11; N-terminus assumed)
–	–	–	0.27 ± 0.02 nM	3.07 ± 0.2 nM	CC[C@H](C)[C@@H]1NC(=O)[C@@H]2CCCN2C(=O)[C@@H]2CCCN2C(=O)[C@H]([C@@H](C)CC)NC(=O)[C@H](CO)NC(=O)[C@H](CCCCN)NC(=O)[C@H](CCCCN)NC(=O)[C@@H](NC(=O)[C@H](CCCNC(=N)N)NC(=O)[C@H](CCCNC(=N)N)NC(=O)[C@@H](N)CCCNC(=N)N)CSSC[C@@H](C(=O)N[C@@H](Cc2ccccc2)C(N)=O)NC1=O [inhibitor 3, Arg-Arg-Arg-Cys(&)-Lys-Lys-Ser-Ile-Pro-Pro-Ile-Cys(&)-Phe-NH2] (H-RRRCKKSIPPICF-NH2; disulfide 4-12)
–	–	–	0.21 ± 0.01 nM	2.41 ± 0.12 nM	CC[C@H](C)[C@@H]1NC(=O)[C@@H]2CCCN2C(=O)[C@@H]2CCCN2C(=O)[C@H]([C@@H](C)CC)NC(=O)[C@H](CO)NC(=O)[C@H](CCCCN)NC(=O)[C@H](CCCCN)NC(=O)[C@@H]2CSSC[C@H](NC1=O)C(=O)N[C@@H](Cc1ccccc1)C(=O)N[C@@H](CCCCN)C(=O)N[C@@H](CCCNC(=N)N)C(=O)N[C@@H](CCCNC(=N)N)C(=O)N2 [inhibitor 5, &^1Lys-Arg-Arg-Cys(&^2)-Lys-Lys-Ser-Ile-Pro-Pro-Ile-Cys(&^2)-Phe&^1] (cyclo(KRRCKKSIPPICF); disulfide 4-12)
–	–	–	0.25 ± 0.01 nM	2.91 ± 0.17 nM	CC[C@H](C)[C@@H]1NC(=O)[C@@H]2CCCN2C(=O)[C@@H]2CCCN2C(=O)[C@H]([C@@H](C)CC)NC(=O)[C@H](CO)NC(=O)[C@H](CCCCN)NC(=O)[C@H](CCCCN)NC(=O)[C@@H]2CSSC[C@H](NC1=O)C(=O)N[C@@H](Cc1ccccc1)C(=O)N[C@@H](CCCNC(=N)N)C(=O)N[C@@H](CCCNC(=N)N)C(=O)N[C@@H](CCCNC(=N)N)C(=O)N2 [inhibitor 6, &^1Arg-Arg-Arg-Cys(&^2)-Lys-Lys-Ser-Ile-Pro-Pro-Ile-Cys(&^2)-Phe&^1] (cyclo(RRRCKKSIPPICF); disulfide 4-12)
